# Test results: patent publication US8524700B2, “Tetrahydroisoquinoline sulfonamide derivatives, the preparation thereof, and the use of the same in therapeutics” (Sanofi, priority 2004, dated 2013)
# Structures can show the parent of a compound that is named as a salt.
# System: not given
# Test: not given
# Conditions: not given
row,Structure (SMILES),melting point [°C]
1,CN(C)CCCNS(=O)(=O)c1ccc2c(c1)CNCC2 (as salt: hydrochloride),230 to 234
2,"O=S(=O)(NCCCN1CC=CCC1)c1ccc2c(c1)CNCC2 (as salt: hydrochloride) [compound 9, N-[3-(3,6-dihydropyridin-1(2H)-yl)propyl]-1,2,3,4-tetrahydroisoquinoline-7-sulfonamide]",> 250
3,"O=S(=O)(NCCCN1CC=CC1)c1ccc2c(c1)CNCC2 (as salt: hydrochloride) [compound 13, N-[3-(2,5-dihydro-1H-pyrrol-1-yl)propyl]-1,2,3,4-tetrahydroisoquinoline-7-sulfonamide]",228 to 231
4,"O=S(=O)(NCCCN1CCN(Cc2ccccc2)CC1)c1ccc2c(c1)CNCC2 (as salt: hydrochloride) [compound 17, N-[3-(4-benzylpiperazin-1-yl)propyl]-1,2,3,4-tetrahydroisoquinoline-7-sulfonamide]",244 to 249
5,"O=S(=O)(NCCCN1CCCC1)c1ccc2c(c1)CNCC2 (as salt: hydrochloride) [compound 18, N-(3-pyrrolidin-1-ylpropyl)-1,2,3,4-tetrahydroisoquinoline-7-sulfonamide]",237 to 241
6,"O=S(=O)(NCCCN1CCOCC1)c1ccc2c(c1)CNCC2 (as salt: hydrochloride) [compound 19, N-(3-morpholin-4-ylpropyl)-1,2,3,4-tetrahydroisoquinoline-7-sulfonamide]",238 to 245
7,"CCN(CC)CCCNS(=O)(=O)c1ccc2c(c1)CN(Cc1ccccc1)CC2 (as salt: oxalate) [compound 5, 2-benzyl-N-[3-(diethylamino)propyl]-1,2,3,4-tetrahydroisoquinoline-7-sulfonamide]",91 to 95
8,"CCN(CC)CCCNS(=O)(=O)c1ccc2c(c1)CN(CC1CC1)CC2 (as salt: oxalate) [compound 6, 2-(cyclopropylmethyl)-N-[3-(diethylamino)propyl]-1,2,3,4-tetrahydroisoquinoline-7-sulfonamide]",98 to 103
9,"CCN(CC)CCCNS(=O)(=O)c1ccc2c(c1)CN(CC1CCCCC1)CC2 (as salt: oxalate) [compound 7, 2-(cyclohexylmethyl)-N-[3-(diethylamino)propyl]-1,2,3,4-tetrahydroisoquinoline-7-sulfonamide]",144 to 147
10,"CCN(CC)CCCNS(=O)(=O)c1ccc2c(c1)CN(C(C)C)CC2 (as salt: oxalate) [compound 10, N-[3-(diethylamino)propyl]-2-isopropyl-1,2,3,4-tetrahydroisoquinoline-7-sulfonamide]",54 to 59
11,"CCN(CC)CCCNS(=O)(=O)c1ccc2c(c1)CN(Cc1cccs1)CC2 (as salt: oxalate) [compound 11, N-[3-(diethylamino)propyl]-2-(2-thienylmethyl)-1,2,3,4-tetrahydroisoquinoline-7-sulfonamide]",109 to 115
12,"CCN(CC)CCCNS(=O)(=O)c1ccc2c(c1)CN(Cc1ccsc1)CC2 (as salt: oxalate) [compound 12, N-[3-(diethylamino)propyl]-2-(3-thienylmethyl)-1,2,3,4-tetrahydroisoquinoline-7-sulfonamide]",89 to 95
13,"CCN(CC)CCCNS(=O)(=O)c1ccc2c(c1)CN(C1CCCCC1)CC2 (as salt: oxalate) [compound 14, 2-cyclohexyl-N-[3-(diethylamino)propyl]-1,2,3,4-tetrahydroisoquinoline-7-sulfonamide]",55 to 60
14,"CN1CCc2ccc(S(=O)(=O)NCCCN3CC=CC3)cc2C1 (as salt: oxalate) [compound 16, N-[3-(2,5-dihydro-1H-pyrrol-1-yl)propyl]-2-methyl-1,2,3,4-tetrahydroisoquinoline-7-sulfonamide]",99 to 104
15,"O=S(=O)(NCCCN1CCCC1)c1ccc2c(c1)CN(CC1CCCCC1)CC2 (as salt: oxalate) [compound 21, 2-(cyclohexylmethyl)-N-(3-pyrrolidin-1-ylpropyl)-1,2,3,4-tetrahydroisoquinoline-7-sulfonamide]",130 to 141
16,CC1CCCCN1CCCNS(=O)(=O)c1ccc2c(c1)CNCC2 (racemic) (as salt: hydrochloride),65 to 70
17,"CN1CCCC1CCNS(=O)(=O)c1ccc2c(c1)CN(CC1CC1)CC2 (racemic) (as salt: oxalate) [compound 22, (+/−)-2-(cyclopropylmethyl)-N-[2-(1-methylpyrrolidin-2-yl)ethyl]-1,2,3,4-tetrahydroisoquinoline-7-sulfonamide]",50 to 60
18,"CN1CCCC1CCNS(=O)(=O)c1ccc2c(c1)CN(Cc1ccccc1)CC2 (racemic) (as salt: oxalate) [compound 23, (+/−)-2-benzyl-N-[2-(1-methylpyrrolidin-2-yl)ethyl]-1,2,3,4-tetrahydroisoquinoline-7-sulfonamide]",77 to 82
19,"CC(C)c1ccc(CN2CCc3ccc(S(=O)(=O)NCCC4CCCN4C)cc3C2)cc1 (racemic) (as salt: oxalate) [compound 24, (+/−)-2-(4-isopropylbenzyl)-N-[2-(1-methylpyrrolidin-2-yl)ethyl]-1,2,3,4-tetrahydroisoquinoline-7-sulfonamide]",103 to 110
20,"CN1CCCC1CCNS(=O)(=O)c1ccc2c(c1)CN(Cc1ccc3c(c1)OCO3)CC2 (racemic) (as salt: oxalate) [compound 25, (+/−)-2-(1,3-benzodioxol-5-ylmethyl)-N-[2-(1-methylpyrrolidin-2-yl)ethyl]-1,2,3,4-tetrahydroisoquinoline-7-sulfonamide]",106 to 109
21,"CN1CCCC1CCNS(=O)(=O)c1ccc2c(c1)CN(Cc1ccc(Br)cc1)CC2 (racemic) (as salt: oxalate) [compound 30, (+/−)-2-(4-bromobenzyl)-N-[2-(1-methylpyrrolidin-2-yl)ethyl]-1,2,3,4-tetrahydroisoquinoline-7-sulfonamide]",86 to 110
22,"COc1ccc(OC)c(CN2CCc3ccc(S(=O)(=O)NCCC4CCCN4C)cc3C2)c1 (racemic) (as salt: oxalate) [compound 31, (+/−)-2-(2,5-dimethoxybenzyl)-N-[2-(1-methylpyrrolidin-2-yl)ethyl]-1,2,3,4-tetrahydroisoquinoline-7-sulfonamide]",87 to 90
23,"CCC(C)CN1CCc2ccc(S(=O)(=O)NCCC3CCCN3C)cc2C1 (racemic) (as salt: oxalate) [compound 32, (+/−)-2-(2-methylbutyl)-N-[2-(1-methylpyrrolidin-2-yl)ethyl]-1,2,3,4-tetrahydroisoquinoline-7-sulfonamide]",66 to 77
24,"COc1cccc(CN2CCc3ccc(S(=O)(=O)NCCC4CCCN4C)cc3C2)c1 (racemic) (as salt: oxalate) [compound 33, (+/−)-2-(3-methoxybenzyl)-N-[2-(1-methylpyrrolidin-2-yl)ethyl]-1,2,3,4-tetrahydroisoquinoline-7-sulfonamide]",80 to 107
25,"Cc1cc(C)cc(CN2CCc3ccc(S(=O)(=O)NCCC4CCCN4C)cc3C2)c1 (racemic) (as salt: oxalate) [compound 34, (+/−)-2-(3,5-dimethyl-benzyl)-N-[2-(1-methylpyrrolidin-2-yl)ethyl]-1,2,3,4-tetrahydroisoquinoline-7-sulfonamide]",121 to 125

# Target: T1, human histamine H3 receptor transfected into CHO cells (Homo sapiens, UniProt Q9Y5N1)
# T1 construct: expressed in transfected cells; host or cells: CHO cells
# T1 sequence (Q9Y5N1 whole entry): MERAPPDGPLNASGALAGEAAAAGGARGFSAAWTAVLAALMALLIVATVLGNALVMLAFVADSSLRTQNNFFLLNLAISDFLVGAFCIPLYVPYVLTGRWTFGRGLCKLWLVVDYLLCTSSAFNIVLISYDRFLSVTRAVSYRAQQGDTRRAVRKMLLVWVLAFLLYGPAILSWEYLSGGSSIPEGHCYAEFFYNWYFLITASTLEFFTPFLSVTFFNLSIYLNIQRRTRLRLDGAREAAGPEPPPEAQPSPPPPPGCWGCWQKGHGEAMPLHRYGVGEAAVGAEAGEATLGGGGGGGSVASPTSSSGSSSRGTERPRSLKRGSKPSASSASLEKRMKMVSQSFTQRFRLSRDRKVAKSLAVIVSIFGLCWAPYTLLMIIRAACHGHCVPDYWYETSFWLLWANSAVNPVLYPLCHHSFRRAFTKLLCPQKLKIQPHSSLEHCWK
# Test: cAMP formation assay, inhibition of R-α-methylhistamine agonism, CHO cells (EIA kit)
# Type: cell-based
# Conditions: human H3 in CHO cells, EIA kit (Amersham)
# Procedure: The compounds of the invention of formula I were also subjected to a cAMP formation assay, on the human histamine H3 receptor transfected into CHO cells, by inhibition of the agonism caused by the specific binding of R-α-methylhistamine to this receptor, according to the methods described by T. W. Lovenberg et al., in J. Pharmacol. Exp. Ther. 293, 771-778 (2000).
# By way of example, compound 15, included in Table 1, has an IC50<10 nM, using an EIA kit (Amersham) to measure cAMP formation, on the human histamine H3 receptor transfected into CHO cells, by inhibition of the agonism caused by the specific binding of R-α-methylhistamine to this receptor.
row,Structure (SMILES),IC50 [nM]
1,"CN1CCCC1CCNS(=O)(=O)c1ccc2c(c1)CN(CC1CCCCC1)CC2 (racemic) [compound 15, (+/−)-2-(cyclohexylmethyl)-N-[2-(1-methylpyrrolidin-2-yl)ethyl]-1,2,3,4-tetrahydroisoquinoline-7-sulfonamide]",< 10

# System: food intake
# Test: food intake in rats fasting for 24 h
# Type: in vivo, Wistar rats
# Conditions: 10 mg/kg i.p., during the first hour after administration, rats fasted 24 h
# Procedure: Furthermore, the compounds of the invention of formula I were subjected to in vivo tests showing their ability to reduce food intake in rats fasting for 24 h.
# The experiments were carried out on Wistar rats. The rats were placed individually in transparent plastic cages 48×26, 5×21.5 cm. These cages were placed in a room insulated against any noise, at a temperature of 20 to 22° C., with a light cycle from 7 o'clock in the morning to 7 o'clock in the evening, the rats having free access to water and to the food.
# Before the experiment was carried out, the rats were made to fast for 24 h, with access, however, to water ad libitum. On the day of the experiment, the carrier or the compound according to the present invention was administered i.p. or p.o., 15 or 30 minutes before a known amount of food (30 g) was made available.
# Each hour, for 6 hours, the amount of food ingested by the rat was measured.
row,Structure (SMILES),decrease of food intake [%]
1,"CC(C)c1ccc(CN2CCc3ccc(S(=O)(=O)NCCC4CCCN4C)cc3C2)cc1 (racemic) [compound 24, (+/−)-2-(4-isopropylbenzyl)-N-[2-(1-methylpyrrolidin-2-yl)ethyl]-1,2,3,4-tetrahydroisoquinoline-7-sulfonamide]",54

# Target: native histamine H3 receptor (Rattus norvegicus, UniProt Q9QYN8)
# Sequence (Q9QYN8 1-397 isoform Q9QYN8-3): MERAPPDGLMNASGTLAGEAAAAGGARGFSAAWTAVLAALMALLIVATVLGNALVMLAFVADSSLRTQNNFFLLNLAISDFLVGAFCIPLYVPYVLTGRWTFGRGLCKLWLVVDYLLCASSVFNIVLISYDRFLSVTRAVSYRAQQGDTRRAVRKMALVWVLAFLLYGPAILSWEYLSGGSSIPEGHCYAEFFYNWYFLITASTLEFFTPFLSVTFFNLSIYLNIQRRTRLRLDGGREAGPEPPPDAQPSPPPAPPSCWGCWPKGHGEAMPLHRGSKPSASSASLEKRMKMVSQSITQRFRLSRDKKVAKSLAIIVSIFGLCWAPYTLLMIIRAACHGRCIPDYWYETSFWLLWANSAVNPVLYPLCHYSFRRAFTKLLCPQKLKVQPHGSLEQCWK
# Test: in vitro affinity assay on native histamine H3 receptor, [3H]-N-α-methylhistamine binding, adult rat brain membrane preparation
# Conditions: rat brain membranes, read-out: Ki with respect to H3 receptors
# Description: More particularly, the compounds of the invention are histamine H3-receptor antagonists. H3 receptors are known to those skilled in the art and their advantage in therapeutics has been described in the literature (“Histamine H3 receptor antagonists” Exp. Opinion Ther. Patents (2000) 10 (7):1045-1055). Thus, the compounds of the invention of formula I were subjected to an in vitro affinity assay on the native histamine H3 receptor in an adult rat brain membrane preparation, by specific binding of [^3H]-N-α-methylhistamine to this receptor, according to the methods described by A. Korte et al., in Biochem. Biophys. Res. Commun. 168, 979-986 (1990) and by R. E. West Jr. et al., in Mol. Pharmacol. 38, 610-613 (1990).
row,Structure (SMILES),Ki [nM]
1,"CN1CCCC1CCNS(=O)(=O)c1ccc2c(c1)CN(CC1CCCCC1)CC2 (racemic) [compound 15, (+/−)-2-(cyclohexylmethyl)-N-[2-(1-methylpyrrolidin-2-yl)ethyl]-1,2,3,4-tetrahydroisoquinoline-7-sulfonamide]",0.3
